Measurements: ChEMBL document CHEMBL3132797, “Synthesis and biological evaluation of substituted N-alkylphenyl-3,5-dinitrobenzamide analogs as anti-TB agents” (Medchemcomm, 2014)
Values after ≈ are worked out from the molar mass of the structure shown.

Key:
[1] = tested on: Mycobacterium tuberculosis; test: Antimycobacterial activity against Mycobacterium tuberculosis H37Rv ATCC 27294 by broth dilution method; format: functional
J774 [2] = test: Cytotoxicity against mouse J774 cells at 20 ug/ml after 24 hrs by MTT assay; format: cell-based; settings: j774, 24 h
J774 [3] = test: Cytotoxicity against mouse J774 cells after 24 hrs by MTT assay; format: cell-based; settings: J774, 24 h
[4] = Selectivity index, ratio of IC50 for mouse J774 cells to MIC for Mycobacterium tuberculosis H37Rv ATCC 27294; format: toxicity, cell-based; settings: read-out: Selectivity Index
[5] = tested on: Mycobacterium tuberculosis; test: Antimycobacterial activity against Mycobacterium tuberculosis H37Rv ATCC 27294 infected in mouse J774 cells assessed as intracellular killing after 48 hrs by colony formation assay; format: functional; settings: H37Rv ATCC 27294, 48 h
[6] = tested on: Mycobacterium tuberculosis; test: Bactericidal activity against Mycobacterium tuberculosis H37Rv ATCC 27294 by broth dilution method; format: functional

Compound | MIC [1] [µM] | also measured
O=C(NC1CCCC1)c1cc([N+](=O)[O-])cc([N+](=O)[O-])c1 | 0.9 (≈ 0.251 µg/mL) | 
O=C(NCCc1ccccc1)c1cc([N+](=O)[O-])cc([N+](=O)[O-])c1 | 0.79 (≈ 0.249 µg/mL) | Activity (J774 [2]): Non-toxic; IC50 (J774 [3]): > 63.5 µM; selectivity ratio [4]: > 80; MIC [5]: 3.16 µM (≈ 0.996 µg/mL); MBC [6]: 0.79 µM (≈ 0.249 µg/mL)
Cc1c([N+](=O)[O-])cc(C(=O)N[C@H](C)c2ccccc2)cc1[N+](=O)[O-] | 0.36 (≈ 0.119 µg/mL) | 
Cc1c([N+](=O)[O-])cc(C(=O)N[C@H](C)c2ccc(Cl)cc2)cc1[N+](=O)[O-] | 1.38 (≈ 0.502 µg/mL) | 
O=C(Nc1ccccc1C(F)(F)F)c1cc([N+](=O)[O-])cc([N+](=O)[O-])c1 | 1.41 (≈ 0.501 µg/mL) | 
Cc1ccc(CNC(=O)c2cc([N+](=O)[O-])c(C)c([N+](=O)[O-])c2)cc1 | 0.09 (≈ 0.0296 µg/mL) | 
C[C@H](NC(=O)c1cc([N+](=O)[O-])cc([N+](=O)[O-])c1)c1ccc(Cl)cc1 | 1.43 (≈ 0.5 µg/mL) | 
O=C(Nc1ccc(OC(F)(F)F)cc1)c1cc([N+](=O)[O-])cc([N+](=O)[O-])c1 | 2.7 (≈ 1 µg/mL) | 
COc1ccc([C@@H](C)NC(=O)c2cc([N+](=O)[O-])cc([N+](=O)[O-])c2)cc1 | 2.9 (≈ 1 µg/mL) | 
C[C@@H](NC(=O)c1cc([N+](=O)[O-])cc([N+](=O)[O-])c1)c1ccc(Cl)cc1 | 0.17 (≈ 0.0595 µg/mL) | 
Cc1c([N+](=O)[O-])cc(C(=O)N[C@H](C)c2ccc(F)cc2)cc1[N+](=O)[O-] | 0.17 (≈ 0.059 µg/mL) | Activity (J774 [2]): Non-toxic; IC50 (J774 [3]): > 57.6 µM; selectivity ratio [4]: > 333; MIC [5]: 0.71 µM (≈ 0.247 µg/mL); MBC [6]: 0.17 µM (≈ 0.059 µg/mL)
CCCCCCNC(=O)c1cc([N+](=O)[O-])cc([N+](=O)[O-])c1 | 1.69 (≈ 0.499 µg/mL) | 
Cc1ccc([C@H](C)NC(=O)c2cc([N+](=O)[O-])c(C)c([N+](=O)[O-])c2)cc1 | 11.7 (≈ 4 µg/mL) | 
COc1ccc([C@H](C)NC(=O)c2cc([N+](=O)[O-])c(C)c([N+](=O)[O-])c2)cc1 | 1.39 (≈ 0.499 µg/mL) | 
COc1ccc([C@@H](C)NC(=O)c2cc([N+](=O)[O-])c(C)c([N+](=O)[O-])c2)cc1 | 0.7 (≈ 0.252 µg/mL) | 
CC[C@H](C)NC(=O)c1cc([N+](=O)[O-])cc([N+](=O)[O-])c1 | > 3.74 | 
CO[C@H]1/C=C/O[C@@]2(C)Oc3c(C)c(O)c4c(O)c(c(/C=N/N5CCN(C)CC5)c(O)c4c3C2=O)NC(=O)/C(C)=C\C=C\[C@H](C)[C@H](O)[C@@H](C)[C@@H](O)[C@@H](C)[C@H](OC(C)=O)[C@@H]1C [RIFAMPIN] | 0.07 (≈ 0.0576 µg/mL) | 
O=C(NCCCCc1ccccc1)c1cc([N+](=O)[O-])cc([N+](=O)[O-])c1 | 0.35 (≈ 0.12 µg/mL) | 
C[C@@H](NC(=O)c1cc([N+](=O)[O-])cc([N+](=O)[O-])c1)c1ccc(F)cc1 | > 12 | 
CCCCCCCCCCCCCCCCNC(=O)c1cc([N+](=O)[O-])cc([N+](=O)[O-])c1 | 0.57 (≈ 0.248 µg/mL) | 
O=C(Nc1ccc(F)cc1)c1cc([N+](=O)[O-])cc([N+](=O)[O-])c1 | > 1.63 | 
O=C(Nc1ccccc1F)c1cc([N+](=O)[O-])cc([N+](=O)[O-])c1 | 26.1 (≈ 7.96 µg/mL) | 
O=C(NCc1ccccc1)c1cc([N+](=O)[O-])cc([N+](=O)[O-])c1 | 0.8 (≈ 0.241 µg/mL) | 
C[C@@H](NC(=O)c1cc([N+](=O)[O-])cc([N+](=O)[O-])c1)c1ccccc1 | 0.19 (≈ 0.0599 µg/mL) | Activity (J774 [2]): Non-toxic; IC50 (J774 [3]): > 63.5 µM; selectivity ratio [4]: > 333; MIC [5]: 0.76 µM (≈ 0.24 µg/mL); MBC [6]: 0.19 µM (≈ 0.0599 µg/mL)
COc1ccc([C@H](C)NC(=O)c2cc([N+](=O)[O-])cc([N+](=O)[O-])c2)cc1 | 0.35 (≈ 0.121 µg/mL) | 
C[C@H](NC(=O)c1cc([N+](=O)[O-])cc([N+](=O)[O-])c1)c1ccc(F)cc1 | 3 (≈ 1 µg/mL) | 
